The source of these data is patent US20200140556A1, “Methods and Compositions for Dectin-2 Stimulation and Cancer Immunotherapy” (The Board of Trustees of the Leland Stanford Junior …, priority 2017, published 2020).

The test system of one test is TAMs. Nature of the test: Stimulation of TAMs by Man2-T785 conjugate in solution. The format is cell-based. As to conditions: stimuli in solution, low / equivalent concentrations. From the text: FIG. 21. Data showing synergism when a Dectin-2 agonist (in this case 65% Man2 100-mer) is conjugated to an immunostimulatory agent (in this case TLR7/8 agonist T785), yielding a glycopeptide conjugate (Man2-T785) that strongly stimulates cells in soluble form.
Synergistic immunostimulatory effects were also observed for the conjugate in vitro. […] Also surprising, the attachment of the TLR7/8 agonist changed the behavior of the Man2 glycopeptides in vitro. Whereas Man2 glycopeptides typically require immobilization (e.g., on a plate or cell) to strongly activate TAMs, the results shown were obtained with the stimuli in solution. […] The same is true of the Man2-antibody conjugates described elsewhere in this disclosure. FIG. 22A presents a schematic of the synthesis used to generate the Man2-T785 conjugate used in FIGS. 20 and 21. Synthetic schemes similar to that depicted in FIG. 22A could also be used to prepare conjugates using R848 (FIG. 22C) and other TLR7/8 ligands.

The test system of another test is subcutaneous PDAC tumors. The test is described as follows: Subcutaneous PDAC tumors from kifunensine-treated mice (flow cytometry). It is filed as in vivo. The conditions noted are these: i.p., q2d for 7 days. The procedure: (§1) FIG. 5A-5D. Mannosidase inhibition with kifunensine induces high-mannose glycan display and increases tumor cell immunogenicity. (FIG. 5A-5C) PDAC cells were treated with kifunensine for 3 days prior to flow cytometric analysis (FIG. 5A) or coculture with TAM (FIG. 5B, FIG. 5C). (FIG. 5A) PDAC cells stained with the mannose-binding lectin, concavalin A. (FIG. 5B, FIG. 5C) Pretreated PDAC cells were labeled with CSFE and cocultured overnight with TAM to assess cytokine production (FIG. 5B) and tumor cell uptake (FIG. 5C) by Dectin-2-expressing TAM. In some experiments, TAM were treated with Dectin-2-blocking antibodies prior to coculture with PDAC cells (FIG. 5C). *, p<0.05 by Student's t-test. (FIG. 5D) Subcutaneous PDAC tumors from kifunensine-treated mice (i.p., q2d for 7 days) were analyzed by flow cytometry. CD8 T cells (CD8^+CD90^+) among total tumor-infiltrating immune cells are gated.
(In flow cytometry, cells or beads pass a laser one at a time.)

For a further test, the system named is PDAC cells. Nature of the test: High-mannose glycan display by kifunensine-treated PDAC cells (concavalin A staining, flow cytometry). It is filed as cell-based. As to conditions: tumor cells treated 3 days. The procedure:
as §1

The subject of test [1] is tumor-associated myeloid cells (TAM cells). The test is described as follows: Coculture of kifunensine-pretreated PDAC cells with TAM (cytokine production, tumor cell uptake). The format is cell-based. As to conditions: overnight coculture; Dectin-2-dependent. The procedure: as §1
Test [2] relates to Dectin-2 expression by murine monocytes. Nature of the test: Dectin-2 expression by murine monocytes cultured with or without GM-CSF (flow cytometry). It is filed as cell-based. As to the method:
(§2) FIG. 4A-4D. GM-CSF induces Dectin-2 expression and sensitizes tumors to Dectin-2 stimuli. (FIG. 4A-4C) Murine (FIG. 4A, FIG. 4B) and human (FIG. 4C) monocytes were cultured for 24 hr in media supplemented or not with GM-CSF (50 ng/mL) prior to flow cytometric analysis of Dectin-2 expression (FIG. 4A, FIG. 4C) or stimulation with furfurman and analysis of TNFα production (FIG. 4B). […] (FIG. 4D) Mice bearing s.c. CT26 tumors were treated with mannan (i.v.) and/or GM-CSF (i.t.) starting on day 6 post-tumor implantation.
(§3) FIG. 27A-27G. […] (FIG. 27A, FIG. 27B) Dectin-2 expression by mouse (FIG. 27A) or human (FIG. 27B) monocytes cultured for 18 hr with media supplemented or not with GM-CSF. (C-E) TNFα production by mouse monocytes pretreated with 3T3 fibroblast-conditioned medium+/−GM-CSF (FIG. 27C) or LMP tumor-conditioned medium+/−GM-CSF-neutralizing antibodies (FIG. 27D) or by human monocytes pretreated as indicated (FIG. 27E). (FIG. 27F) LMP-bearing mice treated with mannan (12.5 mg/kg i.v. q2d×2 wk) and the indicated anibodies (10 mg/kg i.p. q2d). (FIG. 27G) Heatmap depicting correlations between expression of Dectin-2 and the indicated genes in human cancer tissues. Gene expression data were obtained from TCGA and analyzed to obtain Spearman's correlation coefficients. **, p<0.01; ****, p<0.0001 by Student's t-test (B) or two-way ANOVA with post hoc Tukey's (F) test. […]

Another test has as its system s.c. CT26 tumors. Nature of the test: s.c. CT26 tumors treated with mannan (i.v.) and/or GM-CSF (i.t.). The conditions noted are these: from day 6. It is filed as in vivo, mice. The procedure:
as §2
(FIG. 4A-4C) Murine (FIG. 4A, FIG. 4B) and human (FIG. 4C) monocytes were cultured for 24 hr in media supplemented or not with GM-CSF (50 ng/mL) prior to flow cytometric analysis of Dectin-2 expression (FIG. 4A, FIG. 4C) or stimulation with furfurman and analysis of TNFα production. […] (FIG. 4D) Mice bearing s.c. CT26 tumors were treated with mannan (i.v.) and/or GM-CSF (i.t.) starting on day 6 post-tumor implantation.

Test [3] deals with Dectin-2 expression by human monocytes. The test is described as follows: Dectin-2 expression by human monocytes cultured with or without GM-CSF (flow cytometry). The format is cell-based. The procedure:
as §2, §3

Another test has as its system monocytes. The test is described as follows: TNFα production by monocytes pretreated with conditioned medium +/- GM-CSF. The format is cell-based, mouse. The procedure: FIG. 27A-27G. […] (FIG. 27A, FIG. 27B) Dectin-2 expression by mouse (FIG. 27A) or human (FIG. 27B) monocytes cultured for 18 hr with media supplemented or not with GM-CSF. (C-E) TNFα production by mouse monocytes pretreated with 3T3 fibroblast-conditioned medium+/−GM-CSF (FIG. 27C) or LMP tumor-conditioned medium+/−GM-CSF-neutralizing antibodies (FIG. 27D) or by human monocytes pretreated as indicated (FIG. 27E). (FIG. 27F) LMP-bearing mice treated with mannan (12.5 mg/kg i.v. q2d×2 wk) and the indicated anibodies (10 mg/kg i.p. q2d). (FIG. 27G) Heatmap depicting correlations between expression of Dectin-2 and the indicated genes in human cancer tissues. Gene expression data were obtained from TCGA and analyzed to obtain Spearman's correlation coefficients. **, p<0.01; ****, p<0.0001 by Student's t-test (B) or two-way ANOVA with post hoc Tukey's (F) test.

`CCCCc1nc2c(N)nc3ccccc3c2n1CCCCN` [T785, 1-(4-aminobutyl)-2-butyl-1H-imidazo[4,5-c]quinolin-4-amine]: the TAM stimulation entry in the test with TAMs is recorded as “did not”.

Consider `O=C1N[C@@H]2[C@@H](O)[C@@H](O)[C@H](O)[C@@H](CO)N2C1=O` [kifunensine], for which, in the test with subcutaneous PDAC tumors, the “T cell infiltration into tumors” value is recorded as “led to T cell infiltration into tumors” and the “high-mannose glycan display by tumor cells in vivo” value is listed as “increased high-mannose glycan display by tumor cells”. In addition, in the test with PDAC cells, the “high-mannose glycans on the cell surface” value was “sharp increase in high-mannose glycans on the cell surface”. Also, the “TAM activation by treated tumor cells (cytokine production, tumor cell uptake)” value in test [1] is on record as “activated tumor-associated myeloid cells (TAM cells)”.

As for “GM-CSF: granulocyte-macrophage colony-stimulating factor”, the Dectin-2 expression entry in test [2] (mouse monocytes, 18 hr) is recorded as “drives Dectin-2 expression”; in test [2] (murine monocytes, GM-CSF 50 ng/mL, 24 hr) it was “induced Dectin-2 expression”; in test [3] (18 hr), “drives Dectin-2 expression”; in test [3] (GM-CSF 50 ng/mL, 24 hr), “induced Dectin-2 expression”. In addition, the “tumor sensitivity to Dectin-2 stimuli (tumor volume)” value with s.c. CT26 tumors is given as “sensitized tumors to Dectin-2 stimuli”. For the same compound, the “sensitivity to Dectin-2 stimuli (TNFα production)” value in the test with monocytes was “sensitizes TAMs to Dectin-2 stimuli”.
